Results: ChEMBL document CHEMBL1201862, “PubChem BioAssay data set” (2004)
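Assay format: 96-well plates, 48-hour exposure. At the GI50, growth is halved.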 The source made the active and inactive calls. Rule as the data show it: active = GI50 up to about 1.1 µM and inactive = higher.

Tests used:
Assay in all cases: NCI-60 cell line screen, 48 h
COLO 205 = test system: COLO 205
HL-60 = test system: HL-60
HOP-92 = test system: HOP-92
HT-29 = test system: HT-29
KM12 = test system: KM12
LOX IMVI = test system: LOX IMVI
NCI-H460 = test system: NCI-H460
NCI-H522 = test system: NCI-H522
OVCAR-3 = test system: OVCAR-3
RXF 393 = test system: RXF 393
SF-268 = test system: SF-268
SF-539 = test system: SF-539
SK-MEL-28 = test system: SK-MEL-28
SK-MEL-2 = test system: SK-MEL-2
SK-OV-3 = test system: SK-OV-3
SNB-75 = test system: SNB-75
SW-620 = test system: SW-620
UACC-62 = test system: UACC-62
OVCAR-5 = test system: OVCAR-5
SN12C = test system: SN12C

Measured: GI50

COc1ccc([C@H]2C=[N+]([O-])O[C@H](OC3CCCC3)[C@@H]2OC(C)=O)cc1OC
inactive: COLO 205 15.9 µM | HL-60 18.5 µM | HOP-92 14.3 µM | HT-29 20.7 µM | KM12 26.4 µM | LOX IMVI 15.4 µM | NCI-H460 43.9 µM | NCI-H522 5.66 µM | OVCAR-3 26 µM | RXF 393 13.3 µM | SF-268 33.7 µM | SF-539 16.4 µM | SK-MEL-28 20.8 µM | SK-MEL-2 69.3 µM | SK-OV-3 > 100 µM | SNB-75 28.4 µM | SW-620 19.8 µM | UACC-62 22.8 µM

O=C(O)CCC(NC(=O)c1ccc(Nc2nc3cc(C(F)(F)F)ccc3nc2C(=O)O)cc1)C(=O)O (stereo unspecified)
inactive: COLO 205 > 100 µM | HL-60 > 100 µM | HOP-92 > 100 µM | HT-29 > 100 µM | KM12 > 100 µM | LOX IMVI > 100 µM | NCI-H460 > 100 µM | NCI-H522 > 100 µM | OVCAR-3 > 100 µM | OVCAR-5 > 100 µM | RXF 393 > 100 µM | SF-268 > 100 µM | SF-539 > 100 µM | SK-MEL-28 > 100 µM | SK-MEL-2 > 100 µM | SNB-75 > 100 µM | SW-620 > 100 µM | UACC-62 > 100 µM

CC1(C)C2CCC3(OCCO3)C1C(O)C2 (stereo unspecified)
inactive: HL-60 > 100 µM | HOP-92 > 100 µM | HT-29 > 100 µM | KM12 > 100 µM | LOX IMVI > 100 µM | NCI-H460 > 100 µM | NCI-H522 > 100 µM | OVCAR-3 > 100 µM | OVCAR-5 > 100 µM | RXF 393 > 100 µM | SF-268 > 100 µM | SF-539 > 100 µM | SK-MEL-28 > 100 µM | SK-MEL-2 > 100 µM | SNB-75 > 100 µM | SW-620 > 100 µM | UACC-62 > 100 µM

CCOC(=O)c1nc2cc(C(F)(F)F)ccc2nc1Oc1ccc(F)cc1
inactive: COLO 205 > 100 µM | HL-60 63.4 µM | HOP-92 87.3 µM | KM12 > 100 µM | LOX IMVI > 100 µM | NCI-H460 > 100 µM | NCI-H522 > 100 µM | OVCAR-3 > 100 µM | OVCAR-5 > 100 µM | RXF 393 54 µM | SF-268 > 100 µM | SF-539 > 100 µM | SK-MEL-28 > 100 µM | SK-MEL-2 > 100 µM | SN12C > 100 µM | SNB-75 > 100 µM | SW-620 > 100 µM | UACC-62 > 100 µM
